{
  "source": "patent US20200008426A1",
  "about": "“ACTIVE COMPOUND COMBINATIONS” (BAYER AKTIENGESELLSCHAFT, priority 2017, published 2020)",
  "key": {"Colletotrichum coccodes": {"tested_on": "Colletotrichum coccodes", "assay": "In vivo preventive test on Colletotrichum (tomatoes)", "conditions": "Table B1, 3 days after inoculation", "protocol": "(§1) The test is evaluated 3 days after the inoculation."}, "Alternaria solani": {"tested_on": "Alternaria solani", "assay": "In vivo preventive test on Alternaria (tomatoes)", "protocol": "The plants are then placed in an incubation cabinet at approximately 20° C. and a relative atmospheric humidity of 100%.\nas §1"}, "Phakopsora pachyrhizi": {"tested_on": "Phakopsora pachyrhizi", "assay": "In vivo preventive test on Phakopsora (soybeans)", "conditions": "Table C2, 7 days after inoculation"}, "[1]": {"assay": "LogP by HPLC on reversed phase columns (EEC directive 79/831 Annex V.A8)", "conditions": "LC-UV; for LogP [a]: acidic range, 0.1% formic acid in water and acetonitrile", "protocol": "Measurement of LogP values was performed according to EEC directive 79/831 Annex V.A8 by HPLC (High Performance Liquid Chromatography) on reversed phase columns with the following methods:\nLambda-max-values were determined using UV-spectra from 200 nm to 400 nm and the peak values of the chromatographic signals."}, "[2]": {"conditions": "Alternaria solani, 72 h, read-out: Efficacy in % found"}},
  "note": "Where two headings read alike, the source gives them in different places.",
  "data": [
    {"smiles": "OC(Cc1ccccc1Cl)(Cn1nc[nH]c1=S)C1(Cl)CC1", "note": "(centres unmarked) [1.018 prothioconazole, prothioconazole]", "values": [
      {"measurement": "Efficacy in % found", "setting": "Colletotrichum coccodes; 2.5 ppm a.i.", "result": 38, "unit": "%"},
      {"measurement": "Efficacy in % found", "setting": "Colletotrichum coccodes; 5 ppm a.i.", "result": 59, "unit": "%"},
      {"measurement": "Efficacy in % found", "setting": "Colletotrichum coccodes; 10 ppm a.i.", "result": 79, "unit": "%"}
    ]},
    {"smiles": "CC(C)C1CCC(Cc2ccc(Cl)cc2)C1(O)Cn1cncn1", "note": "(centres unmarked) [1.012 ipconazole, ipconazole]", "values": [
      {"measurement": "Efficacy in % found", "setting": "Alternaria solani; Table A1, 2.5 ppm a.i., 3 days after inoculation", "result": 28, "unit": "%"},
      {"measurement": "Efficacy in % found", "setting": "Alternaria solani; Table A1, 5 ppm a.i., 3 days after inoculation", "result": 67, "unit": "%"},
      {"measurement": "Efficacy in % found", "setting": "Alternaria solani; Table A1, 10 ppm a.i., 3 days after inoculation", "result": 88, "unit": "%"}
    ]},
    {"smiles": "Cc1nn(C)c(F)c1C(=O)Nc1ccccc1C(C)CC(C)C", "note": "(centres unmarked) [2.017 penflufen, penflufen]", "values": [
      {"measurement": "Efficacy in % found", "setting": "Alternaria solani; Table A2, 5 ppm a.i., 3 days after inoculation", "result": 11, "unit": "%"},
      {"measurement": "Efficacy in % found", "setting": "Alternaria solani; Table A2, 10 ppm a.i., 3 days after inoculation", "result": 26, "unit": "%"},
      {"measurement": "Efficacy in % found", "setting": "Alternaria solani; Table A2, 20 ppm a.i., 3 days after inoculation", "result": 47, "unit": "%"},
      {"measurement": "Efficacy in % found", "setting": "Phakopsora pachyrhizi; 5 ppm a.i.", "result": 8, "unit": "%"},
      {"measurement": "Efficacy in % found", "setting": "Phakopsora pachyrhizi; 10 ppm a.i.", "result": 43, "unit": "%"},
      {"measurement": "Efficacy in % found", "setting": "Phakopsora pachyrhizi; 20 ppm a.i.", "result": 83, "unit": "%"}
    ]},
    {"smiles": "CC(C)(C)C(O)(CCc1ccc(Cl)cc1)Cn1cncn1", "note": "(centres unmarked) [1.021 tebuconazole, tebuconazole]", "values": [
      {"measurement": "pest or weed control at 2.5 ppm", "setting": "Alternaria solani; Alternaria solani, 72 h, Table A1, 2.5 ppm a.i., 3 days after inoculation, read-out: Efficacy in % found", "result": 5, "unit": "%"},
      {"measurement": "pest or weed control at 5 ppm", "setting": "Alternaria solani; Alternaria solani, 72 h, Table A1, 5 ppm a.i., 3 days after inoculation, read-out: Efficacy in % found", "result": 21, "unit": "%"},
      {"measurement": "pest or weed control at 10 ppm", "setting": "Alternaria solani; Alternaria solani, 72 h, Table A1, 10 ppm a.i., 3 days after inoculation, read-out: Efficacy in % found", "result": 74, "unit": "%"},
      {"measurement": "Efficacy in % found", "setting": "Colletotrichum coccodes; 2.5 ppm a.i.", "result": 44, "unit": "%"},
      {"measurement": "Efficacy in % found", "setting": "Colletotrichum coccodes; 5 ppm a.i.", "result": 44, "unit": "%"},
      {"measurement": "Efficacy in % found", "setting": "Colletotrichum coccodes; 10 ppm a.i.", "result": 64, "unit": "%"}
    ]},
    {"smiles": "N#Cc1c[nH]cc1-c1cccc2c1OC(F)(F)O2", "note": "[13.001 fludioxonil, fludioxonil]", "values": [
      {"measurement": "pest or weed control at 5 ppm", "setting": "Alternaria solani; [2]", "result": 77, "unit": "%"},
      {"measurement": "pest or weed control at 10 ppm", "setting": "Alternaria solani; [2]", "result": 85, "unit": "%"},
      {"measurement": "pest or weed control at 20 ppm", "setting": "Alternaria solani; [2]", "result": 95, "unit": "%"}
    ]},
    {"smiles": "CC(=O)c1ccc(Oc2ccccc2)nc1Cl", "note": "[V.21]", "values": [
      {"measurement": "LogP [a]", "setting": "[1]; Table 2, formula (V)", "result": 2.94},
      {"measurement": "LogP [b]", "setting": "[1]; Table 2, formula (V), neutral range, 0.001 molar ammonium acetate in water and acetonitrile", "result": 2.85}
    ]},
    {"smiles": "OC(Cn1cncn1)c1cnc(Oc2ccc(Cl)cc2F)cc1C(F)(F)F", "note": "(centres unmarked) [I.57]", "values": [
      {"measurement": "LogP [a]", "setting": "[1]; Table 1, formula (I)", "result": "2.86^[a]"}
    ]},
    {"smiles": "OC(Cn1cncn1)c1cnc(Oc2ccc(Br)cc2)cc1C(F)(F)F", "note": "(centres unmarked) [I.48]", "values": [
      {"measurement": "LogP [a]", "setting": "[1]; Table 1, formula (I)", "result": "2.75^[a]"}
    ]},
    {"smiles": "OC(Cn1cncn1)c1cnc(Oc2ccc(Cl)cc2)cc1C(F)F", "note": "(centres unmarked) [I.94]", "values": [
      {"measurement": "LogP [a]", "setting": "[1]; Table 1, formula (I)", "result": "2.13^[a]"}
    ]},
    {"smiles": "Cc1cc(Cl)ccc1Oc1ccc(C(O)Cn2cncn2)c(Cl)n1", "note": "(centres unmarked) [I.15]", "values": [
      {"measurement": "LogP [a]", "setting": "[1]; Table 1, formula (I)", "result": "2.75^[a]"}
    ]},
    {"smiles": "CC(O)(Cn1cncn1)c1ccc(Oc2ccc(Cl)cc2)nc1Cl", "note": "(racemic) [I.09]", "values": [
      {"measurement": "LogP [a]", "setting": "[1]; Table 1, formula (I)", "result": "2.66^[a]"}
    ]},
    {"smiles": "OC(Cn1cncn1)c1ccc(Oc2ccc(F)cc2)nc1Cl", "note": "(centres unmarked) [I.17]", "values": [
      {"measurement": "LogP [a]", "setting": "[1]; Table 1, formula (I)", "result": "2.08^[a]"}
    ]},
    {"smiles": "OC(Cn1cncn1)(c1ccc(Oc2ccc(Br)cc2)nc1C(F)(F)F)C1CC1", "note": "(single isomer, unassigned) [I.99]", "values": [
      {"measurement": "LogP [a]", "setting": "[1]; Table 1, formula (I)", "result": "3.41^[a]"}
    ]},
    {"smiles": "CC(=O)c1ccc(Oc2ccc(Cl)cc2)nc1F", "note": "[V.24]", "values": [
      {"measurement": "LogP [a]", "setting": "[1]; Table 2, formula (V)", "result": "3.51^[a]"}
    ]},
    {"smiles": "CCCC(O)(Cn1cncn1)c1ccc(Oc2ccc(Cl)cc2)nc1C(F)(F)F", "note": "(racemic) [I.100]", "values": [
      {"measurement": "LogP [a]", "setting": "[1]; Table 1, formula (I)", "result": "3.55^[a]"}
    ]},
    {"smiles": "CCC(O)(Cn1cncn1)c1cnc(Oc2ccc(C(F)(F)F)cc2)cc1C(F)(F)F", "note": "(centres unmarked) [I.76]", "values": [
      {"measurement": "LogP [a]", "setting": "[1]; Table 1, formula (I)", "result": "3.52^[a]"}
    ]},
    {"smiles": "CC(O)(Cn1cncn1)c1ccc(Oc2ccc(S(F)(F)(F)(F)F)cc2)nc1Cl", "note": "(centres unmarked) [I.35]", "values": [
      {"measurement": "LogP [a]", "setting": "[1]; Table 1, formula (I)", "result": "3.17^[a]"}
    ]},
    {"smiles": "CC(=O)c1ccc(Oc2ccc(Cl)cc2)nc1C(F)F", "note": "[V.05]", "values": [
      {"measurement": "LogP [a]", "setting": "[1]; Table 2, formula (V)", "result": "3.35^[a]"}
    ]},
    {"smiles": "CC(=O)c1cnc(Oc2ccc(Br)cc2)cc1C(F)(F)F", "note": "[V.27]", "values": [
      {"measurement": "LogP [a]", "setting": "[1]; Table 2, formula (V)", "result": "3.99^[a]"}
    ]},
    {"smiles": "CC(O)(Cn1cncn1)c1ccc(Oc2ccc(OC(F)(F)F)cc2)nc1C(F)(F)F", "note": "(racemic) [I.95]", "values": [
      {"measurement": "LogP [a]", "setting": "[1]; Table 1, formula (I)", "result": "2.98^[a]"}
    ]},
    {"smiles": "CC(O)(Cn1cncn1)c1ccc(Oc2ccc(Cl)cc2)nc1C(F)(F)F", "note": "(centres unmarked) [I.67]", "values": [
      {"measurement": "LogP [a]", "setting": "[1]; Table 1, formula (I)", "result": "2.68^[a]"}
    ]},
    {"smiles": "OC(Cn1cncn1)(c1ccc(Oc2ccc(S(F)(F)(F)(F)F)cc2)nc1C(F)(F)F)C1CC1", "note": "(racemic) [I.97]", "values": [
      {"measurement": "LogP [a]", "setting": "[1]; Table 1, formula (I)", "result": "3.80^[a]"}
    ]},
    {"smiles": "CC(O)(Cn1cncn1)c1cnc(Oc2ccc(Cl)cc2)cc1C(F)(F)F", "note": "(single isomer, unassigned) [I.46]", "values": [
      {"measurement": "LogP [a]", "setting": "[1]; Table 1, formula (I)", "result": "2.93^[a]"}
    ]},
    {"smiles": "OC(Cn1cncn1)c1ccc(Oc2ccc(Cl)cc2Cl)nc1Cl", "note": "(centres unmarked) [I.23]", "values": [
      {"measurement": "LogP [a]", "setting": "[1]; Table 1, formula (I)", "result": "2.75^[a]"}
    ]},
    {"smiles": "CC(O)(Cn1cncn1)c1cnc(Oc2ccc(Cl)cc2)cc1Cl", "note": "(racemic) [I.08]", "values": [
      {"measurement": "LogP [a]", "setting": "[1]; Table 1, formula (I)", "result": "2.50^[a]"}
    ]},
    {"smiles": "CC(=O)c1cnc(Oc2ccc(C(F)(F)F)cc2)cc1Cl", "note": "[V.18]", "values": [
      {"measurement": "LogP [a]", "setting": "[1]; Table 2, formula (V)", "result": "3.87^[a]"}
    ]},
    {"smiles": "OC(Cn1cncn1)(c1ccc(Oc2ccc(C(F)F)cc2)nc1C(F)(F)F)C1CC1", "note": "(centres unmarked) [I.93]", "values": [
      {"measurement": "LogP [a]", "setting": "[1]; Table 1, formula (I)", "result": "3.13^[a]"}
    ]}
  ]
}
